One assay addresses T1, rM4 receptors (Rattus norvegicus, UniProt P08485).
T1 construct: expressed in transfected cells; host or cells: CHO cells
T1 sequence (P08485 1-478): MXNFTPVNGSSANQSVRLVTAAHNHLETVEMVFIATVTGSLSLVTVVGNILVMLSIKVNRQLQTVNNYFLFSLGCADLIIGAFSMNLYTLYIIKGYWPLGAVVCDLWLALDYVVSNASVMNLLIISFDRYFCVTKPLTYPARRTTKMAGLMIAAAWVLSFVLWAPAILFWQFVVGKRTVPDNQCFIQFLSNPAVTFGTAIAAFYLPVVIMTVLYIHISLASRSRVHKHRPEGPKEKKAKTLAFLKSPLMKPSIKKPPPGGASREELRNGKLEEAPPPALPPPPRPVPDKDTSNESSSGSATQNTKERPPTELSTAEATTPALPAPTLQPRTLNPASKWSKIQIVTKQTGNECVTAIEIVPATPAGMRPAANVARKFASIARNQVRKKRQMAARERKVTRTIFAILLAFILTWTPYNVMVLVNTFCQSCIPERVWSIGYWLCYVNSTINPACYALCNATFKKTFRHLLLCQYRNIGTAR
In words: Rat M4 PAM pERK assay. The note with it: PAM mode. Type of assay: cell-based. The protocol: (§1) Chinese hamster ovary (CHO) cells expressing either hM4 or rM4 receptors were frozen in assay ready vials (5×10^6 cells/vial) after bulking-up in culture. The day before an assay, vial(s) were thawed and cells seeded in 384 well white proxiplates at 1000/well for hM4 cells and at 2000/well for rM4 cells, in 10 μL of growth media (Hams/F12 with glutamax and 10% FCS) and incubated overnight at 37° C./5% CO2.
(§2) On the following morning, the growth media was removed by ‘flicking out’ over a bin, patting the inverted plate onto tissue, and then replacing with 10 μL of wash media (Hams/F12 with glutamax and 8 mM HEPES, NB: serum free). Then, the wash media was removed in the same way and replaced with 8 μL/well of the serum free media. Plates were then re-incubated for a further 4 hours at 37° C./5% CO2.
(§3) Compounds for testing were solubilized to 10 mM in DMSO and compound addition plates, consisting of ten-point concentration response curves (CRC) in duplicate points (10 μM top concentration, […]), were prepared by acoustic dispensing and the compound management group.
(§4) After the 4-hour incubation in serum free media, a 4 μL aliquot of the 3× compound solution containing an EC20 of acetylcholine (10 nM final concentration) was added to the cell plate using a 384 well plate to plate transfer. Then, the plate lid was replaced, and the cells incubated for 5 mins at 37° C./5% CO2. Following this final incubation, all cellular processes were stopped by the addition of 4 μL/well of lysis and blocking buffer and plates were incubated for 30 minutes at RT on an orbital shaker (gentle setting). Then, a final addition of 4 μL/well of antibody detection mix, containing both the Europium-Cryptate (donor) and d2 (acceptor) tagged detection components, was added followed by a further 2-hour incubation at RT, and then the plate was read using a TR-FRET (time resolved fluorescence resonance energy transfer) based protocol.

Another assay concerns the target T2, hM4 receptors (Homo sapiens, UniProt P08173).
T2 construct: expressed in transfected cells; host or cells: CHO cells
T2 sequence (P08173 1-479): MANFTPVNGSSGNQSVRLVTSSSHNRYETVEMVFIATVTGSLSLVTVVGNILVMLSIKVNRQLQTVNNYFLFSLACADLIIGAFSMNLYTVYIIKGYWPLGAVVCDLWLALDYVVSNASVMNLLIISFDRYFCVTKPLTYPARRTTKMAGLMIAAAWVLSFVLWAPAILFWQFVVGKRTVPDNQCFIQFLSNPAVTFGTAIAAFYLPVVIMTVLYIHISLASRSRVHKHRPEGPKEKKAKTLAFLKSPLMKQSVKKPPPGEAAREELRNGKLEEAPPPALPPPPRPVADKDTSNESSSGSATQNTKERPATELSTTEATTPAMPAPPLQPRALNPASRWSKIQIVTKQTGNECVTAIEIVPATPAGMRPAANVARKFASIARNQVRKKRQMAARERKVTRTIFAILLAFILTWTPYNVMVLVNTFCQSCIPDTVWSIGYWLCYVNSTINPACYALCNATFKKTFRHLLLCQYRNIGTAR
In words: Human M4 PAM pERK assay. Type of assay: cell-based. The note with it: PAM mode. The protocol: as §1, §2, §3, §4

Another assay concerns the target T3, human M4 receptor (Homo sapiens, UniProt P08173).
T3 construct: expressed in transfected cells
T3 sequence (P08173 1-479): T2 sequence (P08173 1-479)
In words: M4 GTPγS PAM assay. Type of assay: biochemical. The note with it: CHO-K1 membranes expressing human M4, with EC20 acetylcholine (40 nM). The protocol: The M4 GTPγS PAM method was used. Membranes were prepared for GTPgS binding assays from CHO-K1 cells stably expressing human M4 receptor. Briefly, cells were grown in 5-layer cell culture flasks. Cells were washed with 50 mL of PBS and then dissociated with 0.05% trypsin. Dissociated cells were then collected by centrifugation at 650×g for 8 minutes at 4° C. Pellets were washed again in PBS by centrifugation and resuspended in 30 mL of 20 mM HEPES, 10 mM EDTA, pH 7.4. After sitting on ice for 30 min, membranes were collected by centrifugation at 50000×g for 15′ at 4° C., resuspended in 30 mL of 20 mM HEPES, 0.1 mM EDTA, pH 7.4 and collected again by centrifugation. Pellets were then washed twice by centrifugation in 30 mL of 20 mM HEPES, pH 7.4, and stored at −80° C. until the day of the assay. On the day of the assay, pellets were thawed on ice and resuspended in 1 mL of 20 mM HEPES, pH 7.4, 10 mM MgCl2, 100 mM NaCl using dounce homogenization. Membrane protein concentration is determined by BCA protein assay (Promega, Madison, WI) according to Promega guidelines.
On the day of the assay, serial dilutions of test PAM compounds were brought up in assay buffer (20 mM HEPES, 10 mM MgCl2, 100 mM NaCl) at 4× final assay concentration. […] of membrane homogenates (containing […] of membrane protein) were prepared in assay buffer supplemented with GDP at 4× final assay concentration (final assay concentration of GDP is 5 uM for M2 and 0.1 uM for M4) and dispensed into 96 well polypropylene, U-bottom Greiner plates. […] of vehicle or test PAM compound at 4× of final assay concentration diluted in the assay buffer were added to membrane and plates are incubated for 10-15 minutes at room temperature with gentle shaking. Then, […] of EC20 acetylcholine in assay buffer at 4× final assay concentration was added to assay plates (EC20 final assay concentrations was 40 nM for human M4).
Plates were then incubated, with shaking, for an additional 10-15 minutes. 25 mL of 0.4 nM ^35S-GTP (Perkin Elmer, Waltham, MA) in assay buffer was added to assay mixtures. The binding reaction is left on the shaker for 1 hour at room temperature. Membranes in assay reactions were then transferred to GF/C filter plates (Unifilter, Perkin Elmer) and washed three times using a FilterMate Harvester (Perkin Elmer) with cold assay buffer containing no GDP. Filter plates were then dried at 40° C. overnight followed by the addition of […] of Beta Plate Scintillation liquid. Plates are top and bottom sealed before being read on TopCount scintillation counter (Perkin Elmer, Waltham, MA).

Each structure is given as a SMILES string.

The EC50 is the concentration giving half of the maximal effect. On to `COc1c2c(n(C)c(=O)c1C)CN(C(=O)c1cnn(C(F)(F)F)c1)C2C` (racemic) [Compound I-82, 4-Methoxy-1,3,5-trimethyl-6-(1-(trifluoromethyl)-1H-pyrazole-4-carbonyl)-1,5,6,7-tetrahydro-2H-pyrrolo[3,4-b]pyridin-2-one], for which the EC50 at rM4 receptors is 500 to 2000 nM; on hM4 receptors, 100 to 500 nM; on human M4 receptor, 100 to 500 nM.
In the case of `Cc1c2c(n(C)c(=O)c1Cl)C(C)N(C(=O)c1cnn(C(F)(F)F)c1)C2` (single isomer, unassigned) [Compound I-108, 3-Chloro-1,4,7-trimethyl-6-(1-(trifluoromethyl)-1H-pyrazole-4-carbonyl)-1,5,6,7-tetrahydro-2H-pyrrolo[3,4-b]pyridin-2-one], the EC50 was more than 2000 nM at rM4 receptors, 500 to 2000 nM at hM4 receptors and more than 2000 nM at human M4 receptor.
For the molecule `Cc1nc(C(=O)N2Cc3c(C)c(Cl)c(=O)n(C)c3C2)co1` [Compound I-12], the EC50 on rM4 receptors is more than 2000 nM; at hM4 receptors it was 100 to 500 nM; on human M4 receptor it was more than 2000 nM.
As for `Cc1ncc(C(=O)N2Cc3c(C)c(Cl)c(=O)n(C)c3C2)s1` [Compound I-9], the EC50 on rM4 receptors was 500 to 2000 nM; at hM4 receptors, less than 100 nM; on human M4 receptor, 500 to 2000 nM.
On to `Cc1c2c(n(C)c(=O)c1Cl)CN(C(=O)c1csc(C(F)(F)F)n1)C2` [Compound I-26], for which the EC50 at rM4 receptors was more than 2000 nM; on hM4 receptors, 100 to 500 nM; at human M4 receptor it was more than 2000 nM.
As to `Cc1cc(=O)n(C)c2c1C(C)N(C(=O)c1cnc(C(F)(F)F)s1)C2` (single isomer, unassigned) [Compound I-94], the EC50 on rM4 receptors, on hM4 receptors and on human M4 receptor was more than 2000 nM in each case.
Consider `Cc1c2c(n(C)c(=O)c1Cl)CN(C(=O)c1cnc(CC3CC3)s1)C2` [Compound I-28], for which the results for the EC50 at rM4 receptors, at hM4 receptors and on human M4 receptor were 500 to 2000 nM, less than 100 nM and 100 to 500 nM, respectively.
`COc1c2c(n(C)c(=O)c1Cl)CN(C(=O)c1cnn(C(F)(F)F)c1)C2C` (stereo not drawn) [Compound I-73, 3-Chloro-4-methoxy-1,5-dimethyl-6-(1-(trifluoromethyl)-1H-pyrazole-4-carbonyl)-1,5,6,7-tetrahydro-2H-pyrrolo[3,4-b]pyridin-2-one]: the EC50 at rM4 receptors was 500 to 2000 nM; on hM4 receptors it was 100 to 500 nM; on human M4 receptor, 100 to 500 nM.
Take `Cc1c2c(n(C)c(=O)c1Cl)CN(C(=O)c1cnc(C(F)(F)F)s1)C2` [Compound I-29]: the results for the EC50 on rM4 receptors, at hM4 receptors and at human M4 receptor were 500 to 2000 nM, less than 100 nM and 500 to 2000 nM, respectively.
With `Cc1cc(=O)n(C)c2c1C(C)N(C(=O)c1ccc3nc(C(F)(F)F)sc3c1)C2` (single isomer, unassigned) [Compound I-100], the EC50 at rM4 receptors, on hM4 receptors and at human M4 receptor was more than 2000 nM each time.
Regarding `Cc1c2c(n(C)c(=O)c1Cl)CN(C(=O)c1cnc(C(F)F)s1)C2` [Compound I-36], the values for the EC50 at rM4 receptors, at hM4 receptors and on human M4 receptor were 500 to 2000 nM, less than 100 nM and 500 to 2000 nM, respectively.
For the molecule `COCCn1cc(C(=O)N2Cc3c(C)c(Cl)c(=O)n(C)c3C2)cn1` [Compound I-63], the EC50 at rM4 receptors, at hM4 receptors and on human M4 receptor was more than 2000 nM throughout.
On to `Cc1c2c(n(C)c(=O)c1Cl)CN(C(=O)c1ccc(C(F)(F)F)nc1)C2` [Compound I-44], for which the EC50 at rM4 receptors was 500 to 2000 nM; on hM4 receptors it was 100 to 500 nM; at human M4 receptor, less than 100 nM.
For the molecule `COc1c2c(n(C)c(=O)c1C)CN(C(=O)c1cnn(C(F)(F)F)c1)C2C` (single isomer, unassigned) [Compound I-84], the EC50 at rM4 receptors was more than 2000 nM; on hM4 receptors it was 500 to 2000 nM; at human M4 receptor, more than 2000 nM.
As for `Cc1c2c(n(C)c(=O)c1Cl)CN(C(=O)c1cn(CC(C)C)cn1)C2` [Compound I-19], the EC50 on rM4 receptors is more than 2000 nM; on hM4 receptors, 500 to 2000 nM; on human M4 receptor it was more than 2000 nM.
For the molecule `Cc1c2c(n(C)c(=O)c1Cl)CN(C(=O)c1ccc3nc(C(F)(F)F)sc3c1)C2` [Compound I-49], the EC50 was in the range of 500 to 2000 nM at rM4 receptors, 100 to 500 nM at hM4 receptors and 500 to 2000 nM at human M4 receptor.
As to `COc1c2c(n(C)c(=O)c1Cl)CN(C(=O)c1cnn(C(F)(F)F)c1)C2C` (single isomer, unassigned) [Compound I-74], the EC50 on rM4 receptors is 500 to 2000 nM; on hM4 receptors, less than 100 nM; on human M4 receptor, 500 to 2000 nM.
As to `Cc1c2c(n(C)c(=O)c1C)CN(C(=O)c1cnn(C(F)(F)F)c1)C2` [Compound I-112], the EC50 is more than 2000 nM at rM4 receptors, less than 100 nM at hM4 receptors and 100 to 500 nM on human M4 receptor.
In the same order, the values of `COc1c2c(n(C)c(=O)c1C)CN(C(=O)c1cnn(C(F)(F)F)c1)C2C` (single isomer, unassigned) [Compound I-83] are 500 to 2000 nM, less than 100 nM and 100 to 500 nM.
Consider `Cc1cc(=O)n(C)c2c1C(C)N(C(=O)c1cnc(C(F)(F)F)s1)C2` (single isomer, unassigned) [Compound I-95], for which the figures for the EC50 on rM4 receptors, on hM4 receptors and on human M4 receptor were more than 2000 nM, 100 to 500 nM and 500 to 2000 nM, respectively.
For `COc1cc(=O)n(C)c2c1C(C)N(C(=O)c1cnn(C(F)(F)F)c1)C2` (stereo not drawn) [Compound I-79, 4-Methoxy-1,5-dimethyl-6-(1-(trifluoromethyl)-1H-pyrazole-4-carbonyl)-1,5,6,7-tetrahydro-2H-pyrrolo[3,4-b]pyridin-2-one], the EC50 at rM4 receptors was more than 2000 nM; at hM4 receptors it was 500 to 2000 nM; at human M4 receptor, 500 to 2000 nM.

(Values after US12421242B2, “Substituted tetrahydropyrrolo-pyridinone compounds and their use in treating medical conditions” (Karuna Therapeutics, Inc., priority 2022, dated 2025).)
